The structures appear in SMILES notation.

Data set [1] addresses PCSK9 secreted by HepG2 cells (Homo sapiens (Human), UniProt Q8NBP7). In words: Effect on the concentration of PCSK9 secreted by HepG2 cells (ELISA). Format: cell-based. The following applies: 48 hours incubation, read-out: Inhibitory activity on PCSK9, IC50. An excerpt:
• 1. Experimental objective: To detect the inhibitory effect of the compounds on PCSK9. • 2. Experimental instruments and reagents: • 2.1 Instruments:
• CircuLex Human PCSK9 ELISA kit (MBL: CY-8079); • DMEM (Gibco: 31966-021) • FBS (Sigma: S5394) • Compound plate (Thermo: 1353506) • Complete culture medium: DMEM+10% FBS+1×P/S; • Experimental culture medium: DMEM+10% FBS • Cell strain: HepG2 (ATCC: HB-8065)
A self-adhesive seal was applied, the plate was placed on a plate shaker at room temperature, gently shaken, uniformly mixed, and incubated for 1 hour. • 11) The plate was placed on the plate washer, the washing liquid was set to 350 μL per well, and the plate was washed 4 times repeatedly. • 12) 100 μL/well of an HRP-conjugated detection antibody was added, a self-adhesive seal was applied, and the plate was placed on the plate shaker, well mixed uniformly, and incubated for 1 hour. • 13) The plate was placed on the plate washer, the washing liquid was set to 350 μL per well, and the plate was washed 4 times repeatedly. • 14) 100 μL/well of Substrate reagent was added, and the plate was placed in the dark, applied with a self-adhesive seal, placed on the plate shaker, well mixed uniformly, and incubated for 10-20 minutes. • 15) 100 μL/well of Stop solution (1N H2SO4) was added and mixed uniformly. • 16) The optical density (OD) value in each well was measured in sequence at a wavelength of 450 nm by the microplate reader. Detection was carried out within 30 min after the reaction was stopped.
After the OD values were read by the microplate reader, the OD value of the 0-concentration standard in the standard group was subtracted from the OD values of the standards, control group, and samples to obtain the actual OD values for these wells. A standard curve was plotted with Graphpad and the concentration of the sample was calculated. If the dilution was performed during the sample detection, the calculated sample concentration was necessarily multiplied by the corresponding dilution ratio in the final calculation, which was the actual concentration of the sample. Inhibition rate=(actual concentration in control-actual concentration in sample)/actual concentration in control*100. According to the inhibition rates corresponding to the different concentrations, IC50 was derived by Graphpad.
In general terms: An ELISA detects its analyte on a solid surface through an enzyme-linked reagent.

A short description of data set [2]: Pharmacokinetic determination in mice (plasma). In kind it is in vivo, C57BL/6J mice. The settings on record: C57 mice, PO administration, 5 mpk. The method, then: C57BL/6J mice were used as test animals to study the pharmacokinetic behavior of the compounds of the present disclosure in mice (plasma) after oral and intravenous administration.
C57 mice, male, purchased from Shanghai Bk Lab Animal Co., Ltd., with animal production license number (SCXK (Shanghai) 2013-0006 NO.311620400001794).
• Preparation of oral drug: 10% Solutol HS15
10 g of Solutol HS15 solid was weighed, dissolved in 90 mL of pure water, uniformly mixed, stirred, and ultrasonically treated to form a clear solution.
The compound of the present disclosure was weighed and dissolved in this solution, uniformly shaken, and ultrasonically treated for 15 minutes to obtain a colorless clear solution with a concentration of 0.5 mg/mL. • Preparation of intravenous drug: 5% DMSO+10% Solutol HS15+85% PBS […]
3 male C57 mice were fasted overnight and then respectively administered PO at a dose of 5 mg/kg and a volume of 10 mL/kg. […]
Before and after administration of mice, 0.04 mL of blood was collected from the orbit at 0.083 (iv), 0.25, 0.5, 1, 2, 4, 8, and 24 hours, and placed in EDTA-K2 test tubes, which was centrifuged at 6000 rpm at 4° C. for 6 min to separate plasma which was stored at −80° C.; and the […] were fed 4 h after administration.
The final determination results were obtained by using an LCMS/MS method.
The main pharmacokinetic parameters were calculated using WinNonlin 6.1.

PCSK9 secreted by HepG2 cells, sequence (Q8NBP7 153-692): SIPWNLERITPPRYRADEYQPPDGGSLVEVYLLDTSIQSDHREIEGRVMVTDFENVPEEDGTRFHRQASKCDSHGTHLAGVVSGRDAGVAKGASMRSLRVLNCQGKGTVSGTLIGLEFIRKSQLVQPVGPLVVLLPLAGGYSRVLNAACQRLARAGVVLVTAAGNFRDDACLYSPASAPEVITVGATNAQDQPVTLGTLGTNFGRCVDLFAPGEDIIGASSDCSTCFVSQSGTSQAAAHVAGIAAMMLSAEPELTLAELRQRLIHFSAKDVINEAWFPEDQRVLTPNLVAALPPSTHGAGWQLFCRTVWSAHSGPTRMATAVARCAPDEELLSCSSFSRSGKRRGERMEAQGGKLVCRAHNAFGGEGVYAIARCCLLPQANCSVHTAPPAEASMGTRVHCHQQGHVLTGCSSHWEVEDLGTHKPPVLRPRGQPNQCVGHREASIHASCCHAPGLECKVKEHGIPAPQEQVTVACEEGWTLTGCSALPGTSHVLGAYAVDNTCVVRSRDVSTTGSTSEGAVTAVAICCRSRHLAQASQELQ
PCSK9 secreted by HepG2 cells, sequence (Q8NBP7 31-152 partner): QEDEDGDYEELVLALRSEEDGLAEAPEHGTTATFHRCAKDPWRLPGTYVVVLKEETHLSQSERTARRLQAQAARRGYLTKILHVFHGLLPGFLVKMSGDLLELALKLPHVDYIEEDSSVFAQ

`O=C1c2cccnc2CN1c1ccc(N[C@H]2CC[C@H](Nc3ncc(OC(F)(F)Br)cn3)C2)nc1` [Example 123, 6-(6-(((1S,3S)-3-((5-(bromodifluoromethoxy)pyrimidin-2-yl)amino)cyclopentyl)amino)pyridin-3-yl)-6,7-dihydro-5H-pyrrolo[3,4-b]pyridin-5-one]: the IC50 in data set [1] worked out at 3.3 µM.
As to `Cc1cc2c(cn1)CN(c1ccc(N[C@H]3CC[C@H](Nc4ncc(C5CC5)nn4)C3)nc1)C2=O` [Example 160], in data set [1], the IC50 was 6.2 µM.
Still for that read-out and setting: the same measure for `O=C1c2cnccc2CN1c1ccc(N[C@H]2CC[C@H](Nc3ncc(OC(F)F)cn3)C2)nc1` [Example 75, 2-(6-(((1S,3S)-3-((5-(difluoromethoxy)pyrimidin-2-yl)amino)cyclopentyl)amino)pyridin-3-yl)-1,2-dihydro-3H-pyrrolo[3,4-c]pyridin-3-one]: 9 µM; for `O=S1(=O)CCCN1c1ccc(N[C@H]2CC[C@H](Nc3ncc(OC(F)F)cn3)C2)nc1` [Example 91, 2-(6-(((1S,3S)-3-((5-(difluoromethoxy)pyrimidin-2-yl)amino)cyclopentyl)amino)pyridin-3-yl)-1,1-dioxoisothiazolane]: 21.8 µM.
As to `Cc1ccn2nc(N[C@H]3CC[C@H](Nc4ccc(-n5ccccc5=O)cn4)C3)nc2c1` [Example 87, 6′-(((1S,3S)-3-((7-methyl-[1,2,4]triazolo[1,5-a]pyridin-2-yl)amino)cyclopentyl)amino)-2H-[1,3′-bipyridinyl]-2-one], the Time to peak tmax in data set [2] is 0.25 h. Besides, the AUC(0-inf) in data set [2] (male, C57BL/6J, mouse, 5 mg/kg, read-out: Area under the curve AUC0-∞) is 10700 ng·h/mL. Further, the half-life in data set [2] (male, C57BL/6J, mouse, 5 mg/kg, read-out: Half-life t1/2 (converted)) was 4.7 h. Further, the mean residence time (MRT) in data set [2] (male, C57BL/6J, mouse, 5 mg/kg, read-out: Mean residence time MRT) was determined as 3.1 h. Further, the Cmax in data set [2] (male, C57BL/6J, mouse, 5 mg/kg, read-out: Plasma concentration Cmax) was found to be 5510 ng/mL.
For the compound `CC1(C)CCN(c2ccc(N[C@H]3CC[C@H](Nc4ncc(OC(F)F)cn4)C3)nc2)S1(=O)=O` [Example 119], the IC50 in data set [1] was determined as 17.4 µM.
Take `CC1(C)CCCN(c2ccc(N[C@H]3CC[C@H](Nc4ncc(OC(F)F)cn4)C3)nc2)S1(=O)=O` [Example 120]: in data set [1], the half-maximal inhibitory concentration (IC50) was found to be 13.5 µM.
On the same count and under the same terms, the same measure for `O=c1c(-c2ccc(N[C@H]3CC[C@H](Nc4ncc(OC(F)F)cn4)C3)nc2)cnc2ccccn12` [Example 108, 3-(6-(((1S,3S)-3-((5-(difluoromethoxy)pyrimidin-2-yl)amino)cyclopentyl)amino)pyridin-3-yl)-4H-pyridino[1,2-a]pyrimidin-4-one]: 3.8 µM; for `O=C1c2ncc(F)cc2CN1c1ccc(N[C@H]2CC[C@H](Nc3nc4cc(C(F)(F)F)ccn4n3)C2)nc1` [Example 163, 3-Fluoro-6-(6-(((1S,3S)-3-((7-(trifluoromethyl)-[1,2,4]triazolo[1,5-a]pyridin-2-yl)amino)cyclopentyl)amino)pyridin-3-yl)-5,6-dihydro-7H-pyrrolo[3,4-b]pyridin-7-one]: 12 µM; for `Cc1nc(N[C@H]2CC[C@H](Nc3ccc(N4Cc5cccnc5C4=O)cn3)C2)nc2ccccc12` [Example 131, 6-(6-(((1S,3S)-3-((4-methylquinazolin-2-yl)amino)cyclopentyl)amino)pyridin-3-yl)-5,6-dihydro-7H-pyrrolo[3,4-b]pyridin-7-one]: 2 µM.
For `Cc1cnn2c(-c3ccc(N[C@H]4CC[C@H](Nc5ncc(OC(F)F)cn5)C4)nc3)cccc12` [Example 117, (1S,3S)—N1-(5-(difluoromethoxy)pyrimidin-2-yl)-N3-(5-(3-methylpyrazolo[1,5-a]pyridin-7-yl)pyridin-2-yl)cyclopentane-1,3-diamine], the 50% inhibitory concentration (IC50) in data set [1] was 3.6 µM.
Same read-out and setting: with `O=S1(=O)c2ncccc2CN1c1ccc(N[C@H]2CC[C@H](Nc3ncc(OC(F)F)cn3)C2)nc1` [Example 121] the figure was 27.3 µM; with `O=C1c2cc(C(F)(F)F)ncc2CN1c1ccc(N[C@H]2CC[C@H](Nc3ncc(OC(F)F)cn3)C2)nc1` [Example 138, 2-(6-(((1S,3S)-3-((5-(difluoromethoxy)pyrimidin-2-yl)amino)cyclopentyl)amino)pyridin-3-yl)-6-trifluoromethyl-2,3-dihydro-1H-pyrrolo[3,4-c]pyridin-1-one], 0.5 µM.
Still for that read-out and setting: with `O=C1c2nc(C3CC3)ccc2CN1c1ccc(N[C@H]2CC[C@H](Nc3ncc(OC(F)F)cn3)C2)nc1` [Example 141] the figure was 1.8 µM; with `O=c1ccccn1-c1ccc(N[C@H]2CC[C@H](Nc3nsc(C4CC4)n3)C2)nc1` [Example 78, 6′-(((1S,3S)-3-((5-cyclopropyl-1,2,4-thiadiazol-3-yl)amino)cyclopentyl)amino)-2H-[1,3′-bipyridinyl]-2-one], 14.2 µM; with `O=C1c2cc(F)cnc2CN1c1ccc(N[C@H]2CC[C@H](Nc3ncc(OC(F)F)cn3)C2)nc1` [Example 137], 7.4 µM.
On the same count and under the same terms, the same measure for `O=c1n(-c2ccc(N[C@H]3CC[C@H](Nc4ncc(OC(F)F)cn4)C3)nc2)c2nccnc2n1C1CC1` [Example 97, 1-Cyclopropyl-3-(6-(((1S,3S)-3-((5-(difluoromethoxy)pyrimidin-2-yl)amino)cyclopentyl)amino)pyridin-3-yl)-1,3-dihydro-2H-imidazo[4,5-b]pyrazin-2-one]: 11.6 µM; for `CC1(C)C(=O)N(c2ccc(N[C@H]3CC[C@H](Nc4ncc(OC(F)F)cn4)C3)nc2)c2cccnc21` [Example 150]: 14.4 µM; for `FC(F)Oc1cnc(N[C@H]2CC[C@H](Nc3ccc(-c4cccc5ncnn45)cn3)C2)nc1` [Example 139, (1S,3S)—N1-(5-([1,2,4]triazolo[1,5-a]pyridin-5-yl)pyridin-2-yl)-N3-(5-(difluoromethoxy)pyrimidin-2-yl)cyclopentane-1,3-diamine]: 10.4 µM.
As to `O=c1ccccn1-c1ccc(N[C@H]2CC[C@H](Nc3ncc(C4CC4)nn3)C2)nc1` [Example 63, 6′-(((1S,3S)-3-((6-cyclopropyl-1,2,4-triazin-3-yl)amino)cyclopentyl)amino)-2H-[1,3′-bipyridinyl]-2-one], the half-maximal inhibitory concentration (IC50) in data set [1] was found to be 10.5 µM.
`O=S1(=O)c2ncccc2CN1c1ccc(N[C@H]2CC[C@H](Nc3ncc(C(F)(F)F)nn3)C2)nc1` [Example 154, 2-(6-(((1S,3S)-3-((6-(trifluoromethyl)-1,2,4-triazin-3-yl)amino)cyclopentyl)amino)pyridin-3-yl)-2,3-dihydroisothiazolo[5,4-b]pyridine 1,1-dioxide]: the IC50 in data set [1] was determined as 13.2 µM.
Take `N#Cc1cnn2c(-c3ccc(N[C@H]4CC[C@H](Nc5ncc(OC(F)F)cn5)C4)nc3)ccnc12` [Example 118, 7-(6-(((1S,3S)-3-((5-(difluoromethoxy)pyrimidin-2-yl)amino)cyclopentyl)amino)pyridin-3-yl) pyrazolo[1,5-a]pyrimidine-3-carbonitrile]: the IC50 in data set [1] is 0.5 µM.
On to `O=C1c2ncc(F)cc2CN1c1ccc(N[C@H]2CC[C@H](Nc3ncc(OC(F)F)cn3)C2)nc1` [Example 136], for which the IC50 in data set [1] is 9.6 µM.
On the same count and under the same terms, with `CC(C)(O)c1cccn(-c2ccc(N[C@H]3CC[C@H](Nc4ncc(OC(F)F)cn4)C3)nc2)c1=O` [Example 64, 6′-(((1S,3S)-3-((5-(difluoromethoxy)pyrimidin-2-yl)amino)cyclopentyl)amino]-3-(2-hydroxyprop-2-yl)-2H-[1,3′-bipyridinyl]-2-one] the figure was 10 µM.

In general, IC50 refers to the concentration at which inhibition is half-maximal. As a reminder, the MRT is a mean duration of stay, worked out from the concentration-time curve.

These data come from patent US20250326722A1 (SHANGHAI HANSOH BIOMEDICAL CO., LTD., priority 2022, published 2025).
